# Source: US11471502B2, “Neuroprotective peptide” (UNIVERSITY COLLEGE CARDIFF C[…], priority 2017, dated 2022)
# Entries after “also recorded” stand apart in the source; their conditions may differ.
# Key:
# ERK1/MAPK3 = assay: Single in vivo administration in ERK1 KO versus ERK1 WT mice; parameters: species or system mouse
# Experimental: a) RB5 peptide selectively promoted activation of ERK2. Acute striatal slices either pre-treated with Scramble (SCR) or RB5 peptide (50 μM) and then stimulated 10 minutes with glutamate (GLU) (100 μM) or vehicle were analysed in Western blot (left panel) and probed with anti phospho ERK antibodies (p44^ERK1 and p42^ERK2) and anti ERK1/2 antibody. GAPDH was used as loading control. […] No changes were detected in the total ERK1 and ERK2 levels. GAPDH was used as loading control. […] Mice injected with a single dose of CPP-SCR or CPP-RB5 peptides (20 mg/kg, i.p.) were rapidly perfused 1 h later and brains were dissected and further analysed for IHC and immunofluorescence. Representative photomicrographs of pERK1/2, pMSK, pAch3, pELK1 and c-Fos expression in the striatum. […] Two-way ANOVA Bonferroni post hoc comparison: one black star, p<0.05, two black stars, p<0.01, one white star, p<0.001. p) Dose response curve of RB5 peptide for ERK activation. 200 μm thick striatal slices were freshly prepared from 2-month old mice and transferred into a perfusion chamber for 1 h at 32° C. Slices were pre-treated with different doses of RB5 or scrambled control. After 1 h, slices for each dose was fixed in PFA 4% for 15 min. 18 μm cryo-sections were processed for immunohistochemistry with anti-phospho p44/p42 MAP kinase. Neuronal quantification was performed with ImageJ software by counting the number of phospho-ERK positive cells in each slice. The level of activation is expressed on the Y-axis as arbitrary units (AU). Doses are reported in a logarithmic scale (Log 10) on the X-axis. The EC50 was calculated using GraphPad Prism software.
# ERK1 male KO and littermate controls, were generated as described previously and were used for ex vivo analysis.
# Mice pre-treated with a single dose of CPP-RB5 or CPP-SCR (20 mg/kg) were perfused 1 h later and brain slices were processed for nuclear and cytoplasmic markers.
# HdhQ111 mice = assay: HdhQ111 genetic mouse model of Huntington's disease; assay type: in vivo
# Experimental: WT and HdhQ111 mice were treated with CPP-RB5 or Scramble (CPP-SCR) peptides (20 mg/kg i.p.) for 8 days.
# Two-way ANOVA Bonferroni post-hoc comparison ***p<0.001.
# HdhQ111 heterozygous mice (Jax®, Bar Harbour, Me., U.S.A.), zQ175 knock-in heterozygous (mix sex) carrying between 180 and 195 CAG repeats (CHDI-81003003, Psychogenics, Inc. Tarrytown, N.Y.) and Tg2576 transgenic male mice (C57BL6 and SLJ mix background, Taconic Biosciences) were used for IHC, IF and behavioural test.
# We also evaluated the potential neuroprotective effect of RB5, in hdhQ111 transgenic mice, a late onset genetic model of Huntington's Disease. hdhQ111 mice were treated (20 mg/kg, i.p., twice a day) for 7 days (FIG. 5).
compound,measurement,setting,value
CSCC[C@H](NC(=O)[C@H](CCC(=O)O)NC(=O)[C@@H](NC(=O)[C@H](CCC(=O)O)NC(=O)CNC(=O)[C@@H]1CCCN1C(=O)[C@@H](NC(=O)CNC(=O)[C@@H]1CCCN1C(=O)CNC(=O)[C@@H](NC(=O)CNC(=O)[C@H](CCC(=O)O)NC(=O)[C@@H](NC(=O)[C@H](CCCNC(=N)N)NC(=O)[C@H](CCCNC(=N)N)NC(=O)[C@@H]1CCCN1C(=O)[C@H](CCC(=O)O)NC(=O)CNC(=O)CNC(=O)CNC(=O)CNC(=O)CNC(=O)[C@H](CCC(N)=O)NC(=O)[C@@H]1CCCN1C(=O)[C@@H]1CCCN1C(=O)[C@H](CCCNC(=N)N)NC(=O)[C@H](CCCNC(=N)N)NC(=O)[C@H](CCCNC(=N)N)NC(=O)[C@H](CCC(N)=O)NC(=O)[C@H](CCCNC(=N)N)NC(=O)[C@H](CCCNC(=N)N)NC(=O)[C@H](CCCCN)NC(=O)[C@H](CCCCN)NC(=O)[C@H](CCCNC(=N)N)NC(=O)CNC(C)=O)[C@@H](C)O)C(C)C)C(C)C)C(C)C)C(=O)N[C@H](C(=O)N[C@@H](CCCCN)C(=O)NCC(=O)N[C@@H](CCC(N)=O)C(=O)N1CCC[C@H]1C(=O)N[C@@H](Cc1ccccc1)C(=O)N[C@@H](CC(=O)O)C(=O)N[C@@H](C(=O)O)C(C)C)C(C)C [RB5],"pERK, pAcH3 (and pS6)","ERK1/MAPK3; ERK1 KO mice, single administration",did not alter; also recorded: did not reach the statistical significance
same,pERK and pAcH3,"ERK1/MAPK3; ERK1 WT mice, single administration",significant activation
same,phosphorylation of S6,ERK1/MAPK3; ERK1 WT vs ERK1 KO mice,comparable in both genotypes
same,degeneration in the hdhQ111 mutants,"HdhQ111 mice; 20 mg/kg i.p. twice a day, 7 days",prevents degeneration
same,ERK activation (pERK) in striatum,"HdhQ111 mice; 20 mg/kg i.p., 8 days",elevated pERK in WT and mutant striata; also recorded: significant enhancement of ERK activation
same,"apoptotic cells (TUNEL, dorsal striatum)","HdhQ111 mice; HdhQ111 mice, 20 mg/kg i.p., vs Scramble",significant reduction of apoptotic cells
same,pre-apoptotic state (Cleaved Caspase-3),"HdhQ111 mice; hdhQ111 mice, 20 mg/kg i.p.",significant reduction of pre-apoptotic state
